Test results taken from PubChem BioAssay AID248 (DTP/NCI, 2004).
Values joined by “and” are separate entries in the source; they are usually repeats but may differ in a detail not shown here. Equal values may be shown once. Toxic doses and inconclusive results are not listed. Cut-off read from the data, not from the text of the source: active = T/C of 150% or more; inactive = T/C below 125%.

Test system: L1210 leukemia ip in BDF1 mice, survival T/C
Assay: NCI In Vivo Anticancer Drug Screen. Data for tumor model L1210 Leukemia (intraperitoneal) in B6D2F1 (BDF1) mice
Settings: endpoint: mean survival time, higher = longer survival
How it was run: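 In this screen, tumor-bearing mice given compound are compared to those given vehicle, and their survival values are reported as a treated-to-control quotient.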

[1] = dose: 100.0 mg/kg/injection, schedule: Q04DX003 (ip), vehicle: saline with Tween-80
[2] = dose: 200.0 mg/kg/injection, schedule: Q04DX003 (ip), vehicle: saline with Tween-80
[3] = dose: 100.0 mg/kg/injection, schedule: Q01DX001 (ip), vehicle: Klucel (hydroxypropylcellulose) (HPC)
[4] = dose: 200.0 mg/kg/injection, schedule: Q01DX001 (ip), vehicle: Klucel (hydroxypropylcellulose) (HPC)
[5] = dose: 400.0 mg/kg/injection, schedule: Q01DX001 (ip), vehicle: Klucel (hydroxypropylcellulose) (HPC)
[6] = dose: 50.0 mg/kg/injection, schedule: Q01DX009 (ip), vehicle: Klucel (hydroxypropylcellulose) (HPC)
[7] = dose: 100.0 mg/kg/injection, schedule: Q01DX009 (ip), vehicle: Klucel (hydroxypropylcellulose) (HPC)
[8] = dose: 200.0 mg/kg/injection, schedule: Q01DX009 (ip), vehicle: Klucel (hydroxypropylcellulose) (HPC)
[9] = dose: 25.0 mg/kg/injection, schedule: Q01DX009 (ip), vehicle: Klucel (hydroxypropylcellulose) (HPC)
[10] = dose: 50.0 mg/kg/injection, schedule: Q04DX003 (ip), vehicle: Klucel (hydroxypropylcellulose) (HPC)
[11] = dose: 100.0 mg/kg/injection, schedule: Q04DX003 (ip), vehicle: Klucel (hydroxypropylcellulose) (HPC)
[12] = dose: 200.0 mg/kg/injection, schedule: Q04DX003 (ip), vehicle: Klucel (hydroxypropylcellulose) (HPC)
[13] = dose: 400.0 mg/kg/injection, schedule: Q04DX003 (ip), vehicle: Klucel (hydroxypropylcellulose) (HPC)

Measured: T/C

CC1OCC2OC(C)OC(C(COC(c3ccccc3)(c3ccccc3)c3ccccc3)OS(C)(=O)=O)C2O1 (stereo unspecified)
inactive: dose: 100.0 mg/kg/injection, schedule: Q01DX009 (ip), vehicle: saline 101 % of control | dose: 100.0 mg/kg/injection, schedule: Q04DX003 (ip), vehicle: saline 102 % of control | dose: 200.0 mg/kg/injection, schedule: Q01DX009 (ip), vehicle: saline 106 % of control | dose: 200.0 mg/kg/injection, schedule: Q04DX003 (ip), vehicle: saline 98 % of control | dose: 400.0 mg/kg/injection, schedule: Q01DX009 (ip), vehicle: saline 88 % of control | dose: 400.0 mg/kg/injection, schedule: Q04DX003 (ip), vehicle: saline 93 % of control

Cc1cc(Cl)cc(Cl)c1OCC(N)=O
inactive: dose: 100.0 mg/kg/injection, schedule: Q04DX002 (ip), vehicle: saline with Tween-80 94 % of control | dose: 200.0 mg/kg/injection, schedule: Q04DX002 (ip), vehicle: saline with Tween-80 94 % of control | dose: 400.0 mg/kg/injection, schedule: Q04DX002 (ip), vehicle: saline with Tween-80 94 % of control

Nc1nc(Br)c(Br)nc1N
inactive: [1] 104 % of control | [2] 96 % of control | dose: 400.0 mg/kg/injection, schedule: Q04DX003 (ip), vehicle: saline with Tween-80 93 % of control

CCC1C(=O)OC(=O)c2oc3ccc(Cl)cc3c21 (stereo unspecified)
inactive: [3] 100 % of control | [4] 102 % of control | [5] 94 % of control

O=C1c2ccccc2C(C(O)(C(F)(F)F)C(F)(F)F)c2ccccc21
inactive: [1] 92 % of control | [2] 97 % of control

OCC1(c2ccccc2)OC1c1ccccc1 (stereo unspecified)
inactive: [6] 95 % of control | dose: 75.0 mg/kg/injection, schedule: Q04DX003 (ip), vehicle: Klucel (hydroxypropylcellulose) (HPC) 102 % of control | [7] 96 % of control | dose: 150.0 mg/kg/injection, schedule: Q04DX003 (ip), vehicle: Klucel (hydroxypropylcellulose) (HPC) 102 % of control | [8] 96 % of control | dose: 300.0 mg/kg/injection, schedule: Q04DX003 (ip), vehicle: Klucel (hydroxypropylcellulose) (HPC) 107 % of control

CCOC(=O)CNC(=O)Oc1cccc2cccnc12
inactive: dose: 100.0 mg/kg/injection, schedule: Q01DX009 (ip), vehicle: saline with Tween-80 103 % of control | dose: 200.0 mg/kg/injection, schedule: Q01DX009 (ip), vehicle: saline with Tween-80 101 % of control

CCN(CC)CCCC(C)Nc1ccnc(/C=C/c2ccc(Br)cc2)c1 (stereo unspecified)
inactive: [9] 98 % of control | dose: 25.0 mg/kg/injection, schedule: Q04DX003 (ip), vehicle: Klucel (hydroxypropylcellulose) (HPC) 108 % of control | [6] 106 % of control | [10] 108 % of control and 88 % of control | dose: 100.0 mg/kg/injection, schedule: Q01DX001 (ip), vehicle: saline 93 % of control | [7] 97 % of control | [11] 97 % of control

O=C1c2ccccc2C2(c3ccccc3)C=NNC12c1ccccc1 (stereo unspecified)
inactive: [3] 103 % of control | [11] 106 % of control | [4] 98 % of control | [12] 97 % of control | [5] 95 % of control | [13] 103 % of control

O=CC(=O)Nc1ccc(C(=O)O)c(O)c1
inactive: [7] 95 % of control | [8] 95 % of control | dose: 400.0 mg/kg/injection, schedule: Q01DX009 (ip), vehicle: Klucel (hydroxypropylcellulose) (HPC) 98 % of control

COc1ccc2c(ccc3c2ncc2c(=O)[nH]n(C)c23)c1
inactive: [6] 93 % of control | [7] 93 % of control | [8] 93 % of control

CCOC(=O)CCCCCCCCC(=O)Nc1ccc([N+](=O)[O-])cc1O
inactive: [11] 103 % of control | [12] 100 % of control | [13] 101 % of control

CC1(C)C(=NO)C(C)(C)C1=NO
inactive: dose: 12.5 mg/kg/injection, schedule: Q01DX009 (ip), vehicle: Klucel (hydroxypropylcellulose) (HPC) 105 % of control | dose: 12.5 mg/kg/injection, schedule: Q04DX003 (ip), vehicle: Klucel (hydroxypropylcellulose) (HPC) 108 % of control | [9] 106 % of control | [10] 104 % of control
